Measurements as given in patent US20230118435A1, “COMPOSITION COMPRISING AN AVENANTHRAMIDE WITH IMPROVED SKIN PENETRATION” (priority 2020, published 2023).

Experiment: Skin PAMPA (Parallel Artificial Membrane Permeability Assay) permeation from a cosmetic formulation
Type: in vitro ADME
Conditions: for Mean amount per ml acceptor liquid: 0.05% in formulation, no penetration enhancer; for Modulation (%) of penetration / Modulation (%) of penetration / increase of permeation: 3% 1,2-pentanediol (Hydrolite-5); for Penetration behaviour compared with DhAvn D: absence of a penetration enhancer, FIG. 1
Experimental: The permeation of Avn A from a cosmetic formulation across a stratum corneum-mimicking artificial membrane was evaluated using the Skin PAMPA™ (Parallel Artificial Membrane Permeability Assay) model.
The primary penetration barrier of the skin, the stratum corneum (SC), consists of corneocytes embedded in extracellular lipids. The lipid mixture of the Skin PAMPA™ membrane consists of similar quantities of certramides (synthetic ceramide analogues), stearic acid and cholesterol as the SC. The Skin PAMPA™ sandwich consists of two 96-well plates, wherein one plate is formed so as to sit precisely under the plate that contains a porous lipid-impregnated filter. The wells of the bottom plate were filled with formulation, and the wells of the top plate were filled with acceptor solution. The plates were then stacked and incubated. The Skin PAMPA™ model has been used to evaluate semi-solid formulations and found to correlate well with ex vivo permeation studies.
(§1) Heat Phase A and B separately to 70° C.; disperse Phase C in B; add Phase BC to Phase A and emulsify using an ULTRA TURRAX® stirrer (2 minutes); allow to cool by using a vane stirrer; add Phase D for neutralising. The formulation was prepared in bulk. The active substances were pre-dissolved in the corresponding additives and were added to the formulation (15 minutes stirring with a vane stirrer).
180 ml of buffer was mixed with 20 ml ethanol (buffer: 20 mmol/l citric acid, pH 5.5); 0.84 g of anhydrous citric acid was dissolved in approximately 180 g of water; the pH was adjusted to 5.5 using a 30% sodium hydroxide solution; following pH adjustment, the solution was filled up with water to 200 g.
After 240 minutes, approximately 180 μl of each Skin PAMPA™ sample was transferred into an HPLC micro-vial.
Equipment: an Agilent HP 1100 connected to a Waters Empower 3 SR3
Column: a Waters XBridge® C18, 3.5 μm, 3.0×50 mm
Column temperature: 30° C. Mobile phase A: water+0.1% formic acid Mobile phase B: methanol Flow: 1.02 ml/min Injection volume: 25 μl
The permeation of Avn L from a cosmetic formulation across a stratum corneum-mimicking artificial membrane was evaluated as described above using the Skin PAMPA™ (Parallel Artificial Membrane Permeability Assay) model.
The permeation of Avn B from a cosmetic formulation across a stratum corneum-mimicking artificial membrane was evaluated as described above using the Skin PAMPA™ (Parallel Artificial Membrane Permeability Assay) model.
Unlike Examples 1 and 2, acceptor solution samples for HPLC analysis of each Skin PAMPA™ sample were this time taken after just 120 minutes.
(§2) The skin permeation of Avn A, Avn B, Avn C and Avn L in comparison to dihydroavenanthramide D (DhAvn D) from a cosmetic formulation across a stratum corneum-mimicking artificial membrane was evaluated as described above using the Skin PAMPA™ (Parallel Artificial Membrane Permeability Assay) model.
as §1, with “glycerine or water or mixtures thereof” for “the corresponding additives”
After 60, 120 and 240 minutes, approximately 180 μl of each Skin PAMPA™ sample was transferred into an HPLC micro-vial and analysed by HPLC.
as §2, with “The” for “The skin”, “of” for “of Avn A, Avn B, Avn C and”, “formulation in the presence of 3% 1,2-pentanediol” for “formulation”

Compound | Mean amount per ml acceptor liquid (0 min) [μg per ml] | Mean amount per ml acceptor liquid (60 min) [μg per ml] | Mean amount per ml acceptor liquid (120 min) [μg per ml] | Mean amount per ml acceptor liquid (240 min) [μg per ml] | Modulation (%) of penetration (60 min) [%] | Modulation (%) of penetration (120 min) [%] | Modulation (%) of penetration / increase of permeation (240 min) [%] | Increase of permeation (2% Hydrolite-6 (1,2-hexanediol), 240 min) [%] | Increase of permeation (5% Hydrolite-5 (1,2-pentanediol), 240 min) [%] | Increase of permeation (1% Hydrolite-6 (1,2-hexanediol), Example 3, samples taken after 120 minutes) [%] | Increase of permeation (1% SymDiol 68 (1:1 1,2-hexanediol and 1,2-octanediol), Example 3, samples taken after 120 minutes) [%] | Increase of permeation (2% Hydrolite-6 (1,2-hexanediol), Example 3, samples taken after 120 minutes) [%] | Increase of permeation (1% Hydrolite-6 (1,2-hexanediol), 240 min) [%] | Penetration behaviour compared with DhAvn D
O=C(CCc1ccc(O)cc1)Nc1ccccc1C(=O)O [Dihydroavenanthramide D, 2-(3-(4-hydroxyphenyl-)propanoyl-)amidobenzoic acid, reference compound] | 0.000 | 0.225 | 0.288 | 0.750 | −2 | 58 | 57 | – | – | – | – | – | – | –
O=C(C=Cc1ccc(O)cc1)Nc1ccc(O)cc1C(=O)O [Avn A, N-(4′-hydroxycinnamoyl)-5-hydroxyanthranilic acid] | 0 | 0.069 | 0.188 | 0.319 | – | – | 19 | 46 | 59 | – | – | – | – | weaker penetration behaviour than dehydroavenanthramide D (DhAvn D)
O=C(/C=C/C=C/c1ccc(O)cc1)Nc1ccc(O)cc1C(=O)O [Avn L] | 0 | 0 | 0.000 | 0.030 | – | – | 125 | – | – | – | – | – | 160 | weaker penetration behaviour than dehydroavenanthramide D (DhAvn D)

The next lines start with results.

Mean amount per ml acceptor liquid (0 min) [μg per ml] | Mean amount per ml acceptor liquid (60 min) [μg per ml] | Mean amount per ml acceptor liquid (120 min) [μg per ml] | Mean amount per ml acceptor liquid (240 min) [μg per ml] | Modulation (%) of penetration (60 min) [%] | Modulation (%) of penetration (120 min) [%] | Modulation (%) of penetration / increase of permeation (240 min) [%] | Increase of permeation (2% Hydrolite-6 (1,2-hexanediol), 240 min) [%] | Increase of permeation (5% Hydrolite-5 (1,2-pentanediol), 240 min) [%] | Increase of permeation (1% Hydrolite-6 (1,2-hexanediol), Example 3, samples taken after 120 minutes) [%] | Increase of permeation (1% SymDiol 68 (1:1 1,2-hexanediol and 1,2-octanediol), Example 3, samples taken after 120 minutes) [%] | Increase of permeation (2% Hydrolite-6 (1,2-hexanediol), Example 3, samples taken after 120 minutes) [%] | Increase of permeation (1% Hydrolite-6 (1,2-hexanediol), 240 min) [%] | Compound | Penetration behaviour compared with DhAvn D
0 | 0.038 | 0.063 | 0.154 | – | – | – | – | – | 62 | 87 | 76 | – | COc1cc(C=CC(=O)Nc2ccc(O)cc2C(=O)O)ccc1O [Avn B, N-(4′-hydroxy-3′-methoxycinnamoyl)-5-hydroxyanthranilic acid] | weaker penetration behaviour than dehydroavenanthramide D (DhAvn D)
0 | 0.321 | 0.532 | 1.098 | – | – | – | – | – | – | – | – | – | O=C(C=Cc1ccc(O)c(O)c1)Nc1ccc(O)cc1C(=O)O [Avn C, N-(3′-4′-dihydroxycinnamoyl)-5-hydroxyanthranilic acid] | penetrates better than dehydroavenanthramide D (DhAvn D)
